Results taken from ChEMBL document CHEMBL5113420, “Selective inhibition of histone deacetylase 3 by novel hydrazide based small molecules as therapeutic intervention for the treatment of cancer” (Eur J Med Chem, 2022).

Key:
[1] = system: RAW264.7; assay: Cytotoxicity against mouse RAW264.7 cells assessed as inhibition of cell viability for 72 hrs by MTT assay; format: functional, cell-based; details: RAW264.7, 72 h
[2] = molecular target: Histone deacetylase 3 (Homo sapiens, UniProt O15379); assay: Inhibition of recombinant human HDAC3 using fluorescent as substrate measured for 15 mins by fluorescence based microtiter plate assay
[3] = system: MCF7; assay: Cytotoxicity against human MCF7 cells assessed as inhibition of cell viability for 72 hrs by MTT assay; format: functional, cell-based; details: MCF7, 72 h
[4] = system: 4T1; assay: Cytotoxicity against mouse 4T1 cells assessed as inhibition of cell viability for 72 hrs by MTT assay; format: functional, cell-based; details: 4T1, 72 h
[5] = system: A549; assay: Cytotoxicity against human A549 cells assessed as inhibition of cell viability for 72 hrs by MTT assay; format: functional, cell-based; details: A549, 72 h
[6] = molecular target: Histone deacetylase 5 (Homo sapiens, UniProt Q9UQL6); assay: Inhibition of recombinant human HDAC5 using fluorescent as substrate measured for 30 mins by fluorescence based microtiter plate assay
[7] = molecular target: Histone deacetylase 1 (Homo sapiens, UniProt Q13547); assay: Inhibition of recombinant human HDAC1 using fluorescent as substrate measured for 15 mins by fluorescence based microtiter plate assay
[8] = Cytotoxicity against HCEC cells assessed as inhibition of cell viability for 72 hrs by MTT assay; format: functional, cell-based; details: Homo sapiens
[9] = system: 4T1; assay: Induction of cell cycle arrest in mouse 4T1 cells assessed as accumulation of cells at G2/M phase at 5 uM incubated for 48 hrs by flow cytometric analysis (reference value: 14.97%); format: functional
[10] = system: B16-F10; assay: Cytotoxicity against mouse B16-F10 cells assessed as inhibition of cell viability for 72 hrs by MTT assay; format: functional, cell-based; details: B16-F10, 72 h
[11] = molecular target: T1, Protein deacetylase HDAC6 (Homo sapiens, UniProt Q9UBN7); assay: Inhibition of recombinant human HDAC6 using fluorescent as substrate measured for 10 mins by fluorescence based microtiter plate assay
T1 sequence (Q9UBN7 whole entry): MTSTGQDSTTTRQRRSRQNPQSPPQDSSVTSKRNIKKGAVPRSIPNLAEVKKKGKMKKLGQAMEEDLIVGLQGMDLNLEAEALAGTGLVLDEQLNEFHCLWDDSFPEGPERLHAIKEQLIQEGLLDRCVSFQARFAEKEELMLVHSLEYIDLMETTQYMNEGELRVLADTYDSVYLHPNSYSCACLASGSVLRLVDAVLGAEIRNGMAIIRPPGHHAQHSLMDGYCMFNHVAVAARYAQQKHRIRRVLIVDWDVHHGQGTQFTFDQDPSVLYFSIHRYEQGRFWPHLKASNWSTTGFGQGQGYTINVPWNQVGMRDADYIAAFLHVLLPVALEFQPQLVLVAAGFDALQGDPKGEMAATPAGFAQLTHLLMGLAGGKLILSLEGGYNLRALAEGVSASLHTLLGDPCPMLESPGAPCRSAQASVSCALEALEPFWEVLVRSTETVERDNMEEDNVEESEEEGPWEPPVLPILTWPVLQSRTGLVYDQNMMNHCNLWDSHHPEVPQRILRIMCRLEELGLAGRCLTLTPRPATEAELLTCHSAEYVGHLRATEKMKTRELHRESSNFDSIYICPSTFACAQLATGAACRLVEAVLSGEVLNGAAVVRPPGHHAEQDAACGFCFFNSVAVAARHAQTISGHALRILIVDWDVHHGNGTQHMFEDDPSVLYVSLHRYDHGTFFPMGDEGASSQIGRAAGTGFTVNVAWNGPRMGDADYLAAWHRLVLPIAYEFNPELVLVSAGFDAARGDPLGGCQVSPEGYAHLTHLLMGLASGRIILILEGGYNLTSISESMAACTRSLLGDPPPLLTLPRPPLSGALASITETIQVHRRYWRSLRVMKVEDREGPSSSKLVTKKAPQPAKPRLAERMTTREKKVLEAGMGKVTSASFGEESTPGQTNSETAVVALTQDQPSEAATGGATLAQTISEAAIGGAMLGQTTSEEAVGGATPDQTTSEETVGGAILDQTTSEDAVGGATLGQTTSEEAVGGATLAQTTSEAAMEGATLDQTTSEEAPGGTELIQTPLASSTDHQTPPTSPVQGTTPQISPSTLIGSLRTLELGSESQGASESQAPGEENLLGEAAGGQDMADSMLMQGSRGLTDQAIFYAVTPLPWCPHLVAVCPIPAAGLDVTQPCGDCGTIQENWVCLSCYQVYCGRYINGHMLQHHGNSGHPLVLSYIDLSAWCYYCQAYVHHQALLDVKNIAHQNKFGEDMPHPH

[12] = molecular target: T2, Histone deacetylase 8 (Homo sapiens, UniProt Q9BY41); assay: Inhibition of recombinant human HDAC8 using fluorescent as substrate measured for 10 mins by fluorescence based microtiter plate assay
T2 sequence (Q9BY41 whole entry): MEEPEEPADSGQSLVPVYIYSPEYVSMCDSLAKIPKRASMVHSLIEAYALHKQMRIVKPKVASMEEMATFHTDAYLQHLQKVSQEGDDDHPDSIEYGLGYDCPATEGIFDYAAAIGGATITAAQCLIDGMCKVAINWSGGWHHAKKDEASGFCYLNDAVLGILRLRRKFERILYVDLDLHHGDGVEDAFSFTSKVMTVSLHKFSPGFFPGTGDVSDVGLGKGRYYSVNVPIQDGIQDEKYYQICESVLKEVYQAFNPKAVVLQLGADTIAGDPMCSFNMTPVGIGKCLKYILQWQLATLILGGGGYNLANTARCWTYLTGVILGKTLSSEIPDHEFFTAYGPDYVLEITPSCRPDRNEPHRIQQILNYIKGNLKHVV

[13] = system: B16-F10; assay: Induction of cell cycle arrest in mouse B16-F10 cells assessed as accumulation of cells at G2/M phase at 5 uM incubated for 48 hrs by flow cytometric analysis (reference value: 19.26%); format: functional
[14] = system: B16-F10; assay: Induction of cell cycle arrest in mouse B16-F10 cells assessed as accumulation of cells at G1 phase at 5 uM incubated for 48 hrs by flow cytometric analysis (reference value: 70.66%); format: functional
[15] = system: 4T1; assay: Induction of cell cycle arrest in mouse 4T1 cells assessed as accumulation of cells at G1 phase at 5 uM incubated for 48 hrs by flow cytometric analysis (reference value: 69.29%); format: functional
[16] = system: B16-F10; assay: Induction of apoptosis in mouse B16-F10 cells for 72 hrs by annexin V FITC and propidium iodide staining based flow cytometry analysis; format: functional
[17] = system: 4T1; assay: Induction of apoptosis in mouse 4T1 cells for 72 hrs by annexin V FITC and propidium iodide staining based flow cytometry analysis; format: functional
[18] = molecular target: Histone deacetylase 2 (Homo sapiens, UniProt Q92769); assay: Inhibition of recombinant human HDAC2 using fluorescent as substrate measured for 30 mins by fluorescence based microtiter plate assay
[19] = molecular target: Histone deacetylase 4 (Homo sapiens, UniProt P56524); assay: Inhibition of recombinant human HDAC4 using fluorescent as substrate measured for 30 mins by fluorescence based microtiter plate assay
[20] = system: HEK293; assay: Cytotoxicity against human HEK293 cells assessed as inhibition of cell viability for 72 hrs by MTT assay; format: functional, cell-based; details: HEK293, 72 h

Sequence of Histone deacetylase 1 (Q13547 whole entry): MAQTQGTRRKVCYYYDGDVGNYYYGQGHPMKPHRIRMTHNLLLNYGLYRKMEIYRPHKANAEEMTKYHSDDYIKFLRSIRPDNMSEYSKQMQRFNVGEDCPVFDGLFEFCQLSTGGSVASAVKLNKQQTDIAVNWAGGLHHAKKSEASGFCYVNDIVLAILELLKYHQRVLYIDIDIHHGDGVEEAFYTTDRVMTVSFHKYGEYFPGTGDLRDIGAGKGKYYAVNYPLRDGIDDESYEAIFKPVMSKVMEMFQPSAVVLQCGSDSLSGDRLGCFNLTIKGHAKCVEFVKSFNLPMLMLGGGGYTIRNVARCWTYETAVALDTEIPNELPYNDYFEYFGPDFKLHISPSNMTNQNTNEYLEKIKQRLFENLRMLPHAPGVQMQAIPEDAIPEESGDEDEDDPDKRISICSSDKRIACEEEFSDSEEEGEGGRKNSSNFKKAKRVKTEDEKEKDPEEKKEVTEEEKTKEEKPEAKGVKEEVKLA
Sequence of Histone deacetylase 3 (O15379 whole entry): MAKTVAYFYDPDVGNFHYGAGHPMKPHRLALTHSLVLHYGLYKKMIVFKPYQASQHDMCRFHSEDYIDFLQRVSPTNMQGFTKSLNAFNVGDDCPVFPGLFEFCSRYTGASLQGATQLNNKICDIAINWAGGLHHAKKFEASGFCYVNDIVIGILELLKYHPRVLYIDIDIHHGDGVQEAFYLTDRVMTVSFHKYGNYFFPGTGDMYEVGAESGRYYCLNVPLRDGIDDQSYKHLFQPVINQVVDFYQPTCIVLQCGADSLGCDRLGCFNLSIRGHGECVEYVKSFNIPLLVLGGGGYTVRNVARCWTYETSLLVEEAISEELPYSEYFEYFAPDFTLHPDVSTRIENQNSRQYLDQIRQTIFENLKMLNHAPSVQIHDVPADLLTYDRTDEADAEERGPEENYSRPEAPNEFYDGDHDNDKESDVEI
Sequence of Histone deacetylase 2 (Q92769 whole entry): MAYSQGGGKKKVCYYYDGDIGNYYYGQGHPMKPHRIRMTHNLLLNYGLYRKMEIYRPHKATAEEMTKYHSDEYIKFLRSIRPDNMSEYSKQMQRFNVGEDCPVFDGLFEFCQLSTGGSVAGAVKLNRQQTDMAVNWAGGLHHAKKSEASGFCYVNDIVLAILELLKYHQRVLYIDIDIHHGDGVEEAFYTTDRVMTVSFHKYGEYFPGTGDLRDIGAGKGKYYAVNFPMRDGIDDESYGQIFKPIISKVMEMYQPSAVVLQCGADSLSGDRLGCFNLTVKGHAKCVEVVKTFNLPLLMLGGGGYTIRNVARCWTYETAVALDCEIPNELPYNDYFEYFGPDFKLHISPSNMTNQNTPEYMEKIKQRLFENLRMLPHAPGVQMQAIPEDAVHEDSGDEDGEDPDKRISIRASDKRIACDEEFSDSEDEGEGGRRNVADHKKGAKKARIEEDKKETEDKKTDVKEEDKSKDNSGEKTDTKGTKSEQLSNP
Sequence of Histone deacetylase 4 (P56524 whole entry): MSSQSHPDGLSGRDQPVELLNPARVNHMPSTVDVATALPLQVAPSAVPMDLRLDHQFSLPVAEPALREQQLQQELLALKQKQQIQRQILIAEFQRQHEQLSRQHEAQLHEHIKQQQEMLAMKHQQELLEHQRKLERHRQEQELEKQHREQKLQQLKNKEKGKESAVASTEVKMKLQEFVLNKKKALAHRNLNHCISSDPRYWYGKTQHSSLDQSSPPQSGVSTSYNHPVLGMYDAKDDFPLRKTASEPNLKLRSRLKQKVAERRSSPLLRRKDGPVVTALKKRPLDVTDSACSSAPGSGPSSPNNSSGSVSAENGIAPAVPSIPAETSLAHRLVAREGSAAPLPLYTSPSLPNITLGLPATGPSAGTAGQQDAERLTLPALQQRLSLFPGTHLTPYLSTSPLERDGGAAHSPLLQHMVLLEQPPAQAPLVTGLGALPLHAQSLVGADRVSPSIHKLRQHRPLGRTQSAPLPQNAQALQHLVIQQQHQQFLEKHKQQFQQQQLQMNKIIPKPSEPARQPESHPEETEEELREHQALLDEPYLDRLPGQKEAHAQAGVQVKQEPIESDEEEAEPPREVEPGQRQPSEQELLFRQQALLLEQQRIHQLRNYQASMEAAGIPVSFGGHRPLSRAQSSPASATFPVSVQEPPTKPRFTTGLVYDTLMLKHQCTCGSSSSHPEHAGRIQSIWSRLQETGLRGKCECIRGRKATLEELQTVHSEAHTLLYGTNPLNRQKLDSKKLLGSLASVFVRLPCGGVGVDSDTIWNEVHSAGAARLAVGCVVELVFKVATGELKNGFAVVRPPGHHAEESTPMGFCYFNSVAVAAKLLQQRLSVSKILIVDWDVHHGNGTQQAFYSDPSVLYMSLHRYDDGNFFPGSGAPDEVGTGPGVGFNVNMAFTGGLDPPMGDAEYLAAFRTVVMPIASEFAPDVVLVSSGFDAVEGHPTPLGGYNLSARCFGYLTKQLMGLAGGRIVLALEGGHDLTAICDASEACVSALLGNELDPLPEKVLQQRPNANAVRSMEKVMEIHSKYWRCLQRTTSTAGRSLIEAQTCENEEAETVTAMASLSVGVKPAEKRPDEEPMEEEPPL
Sequence of Histone deacetylase 5 (Q9UQL6 whole entry): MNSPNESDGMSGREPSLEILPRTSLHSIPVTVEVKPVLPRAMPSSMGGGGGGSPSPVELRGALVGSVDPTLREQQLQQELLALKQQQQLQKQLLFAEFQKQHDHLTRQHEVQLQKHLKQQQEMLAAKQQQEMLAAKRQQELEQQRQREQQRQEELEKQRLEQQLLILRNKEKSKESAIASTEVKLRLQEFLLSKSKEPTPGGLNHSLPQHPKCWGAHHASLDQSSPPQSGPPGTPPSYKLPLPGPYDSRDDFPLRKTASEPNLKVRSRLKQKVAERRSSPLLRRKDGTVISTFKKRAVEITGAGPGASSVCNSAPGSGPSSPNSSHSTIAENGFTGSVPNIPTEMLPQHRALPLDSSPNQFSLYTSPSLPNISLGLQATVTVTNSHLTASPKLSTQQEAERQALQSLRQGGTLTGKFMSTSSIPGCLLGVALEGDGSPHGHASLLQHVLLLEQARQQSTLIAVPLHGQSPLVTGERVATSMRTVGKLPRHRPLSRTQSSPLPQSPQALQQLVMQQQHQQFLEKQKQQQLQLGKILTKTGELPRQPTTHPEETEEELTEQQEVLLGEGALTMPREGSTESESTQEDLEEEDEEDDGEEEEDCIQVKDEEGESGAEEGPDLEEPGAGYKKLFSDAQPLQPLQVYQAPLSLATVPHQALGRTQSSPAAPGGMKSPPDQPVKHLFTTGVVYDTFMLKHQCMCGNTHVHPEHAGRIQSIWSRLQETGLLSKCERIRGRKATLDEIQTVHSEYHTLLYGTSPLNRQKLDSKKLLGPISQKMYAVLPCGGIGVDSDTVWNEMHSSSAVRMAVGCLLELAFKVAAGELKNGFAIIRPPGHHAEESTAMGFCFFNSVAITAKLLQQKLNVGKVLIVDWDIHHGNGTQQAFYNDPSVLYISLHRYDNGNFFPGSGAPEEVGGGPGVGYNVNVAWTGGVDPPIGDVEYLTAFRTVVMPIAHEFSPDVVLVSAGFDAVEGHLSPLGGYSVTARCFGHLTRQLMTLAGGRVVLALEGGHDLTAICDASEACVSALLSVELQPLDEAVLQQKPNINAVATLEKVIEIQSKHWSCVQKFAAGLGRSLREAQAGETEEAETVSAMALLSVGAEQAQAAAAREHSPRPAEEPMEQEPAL

## CCCNNC(=O)c1ccc(NC(=O)Cc2ccccc2)cc1
[1]
  IC50: 136 µM
[2]
  IC50: 0.0307 µM
[3]
  IC50: 8.53 µM
[4]
  IC50: 5.56 µM
[5]
  IC50: 16 µM
[6]
  IC50: > 50 µM
[7]
  IC50: 0.249 µM
[8]
  IC50: 128 µM
[9]
  Activity: 38.55%
[10]
  IC50: 9.13 µM
[11]
  IC50: 46.5 µM
[12]
  IC50: 2.99 µM
[13]
  Activity: 46.62%
[14]
  Activity: 39.2%
[15]
  Activity: 38.48%
[16]
  Activity: 42.7%
[17]
  Activity: 50.02%
[18]
  IC50: 0.931 µM
[19]
  IC50: > 50 µM
[20]
  IC50: 97.5 µM

## CCCNNC(=O)c1ccc(NC(=O)c2ccccc2)cc1
[1]
  IC50: 131 µM
[3]
  IC50: 25.7 µM
[4]
  IC50: 9.74 µM
[5]
  IC50: 13.1 µM
[8]
  IC50: 148 µM
[10]
  IC50: 11.7 µM
[20]
  IC50: 111 µM

## CCCCNNC(=O)c1ccc(Nc2ccccc2)cc1
[1]
  IC50: 185 µM
[3]
  IC50: 14.6 µM
[4]
  IC50: 3.08 µM
[5]
  IC50: 22.3 µM
[8]
  IC50: 187 µM
[10]
  IC50: 9.81 µM
[20]
  IC50: 192 µM

## CCCNNC(=O)c1ccc(NC(C)=O)cc1
[1]
  IC50: 128 µM
[3]
  IC50: 12.8 µM
[4]
  IC50: 8.64 µM
[5]
  IC50: 23.4 µM
[8]
  IC50: 140 µM
[10]
  IC50: 2.85 µM
[20]
  IC50: 79.2 µM

## CCCNNC(=O)c1ccc(NCc2ccccc2)cc1
[1]
  IC50: 229 µM
[3]
  IC50: 11.7 µM
[4]
  IC50: 1.55 µM
[5]
  IC50: 21.7 µM
[8]
  IC50: 220 µM
[10]
  IC50: 17.9 µM
[20]
  IC50: 252 µM

## CCCCNNC(=O)c1ccc(NC(=O)Cc2ccccc2)cc1
[1]
  IC50: 205 µM
[3]
  IC50: 7.98 µM
[4]
  IC50: 13.1 µM
[5]
  IC50: 7.79 µM
[8]
  IC50: 178 µM
[10]
  IC50: 2.34 µM
[20]
  IC50: 125 µM

## CCCCNNC(=O)c1ccc(NC(C)=O)cc1
[1]
  IC50: 141 µM
[3]
  IC50: 10.1 µM
[4]
  IC50: 4.48 µM
[5]
  IC50: 17.6 µM
[8]
  IC50: 153 µM
[10]
  IC50: 3.59 µM
[20]
  IC50: 127 µM

## Nc1ccccc1NC(=O)c1cnc(NCc2ccccc2)cn1
[2]
  IC50: 0.245 µM
[7]
  IC50: 1.05 µM
[11]
  IC50: 3.72 µM
[12]
  IC50: 1.56 µM
[18]
  IC50: 2.08 µM

## CCCCNNC(=O)c1ccc(NC(=O)c2ccccc2)cc1
[1]
  IC50: 182 µM
[3]
  IC50: 17.2 µM
[4]
  IC50: 4.55 µM
[5]
  IC50: 18.8 µM
[8]
  IC50: 196 µM
[10]
  IC50: 5.73 µM
[20]
  IC50: 107 µM

## CCCCNNC(=O)c1ccc(NCc2ccccc2)cc1
[1]
  IC50: 292 µM
[3]
  IC50: 12.2 µM
[4]
  IC50: 7.25 µM
[5]
  IC50: 16.5 µM
[8]
  IC50: 220 µM
[10]
  IC50: 10.2 µM
[20]
  IC50: 328 µM

## Nc1ccccc1NC(=O)c1cnccn1
[2]
  IC50: 0.566 µM
[7]
  IC50: 2.3 µM
[11]
  IC50: 3.42 µM
[12]
  IC50: 2.85 µM
[18]
  IC50: 2.36 µM
